Source: ChEMBL document CHEMBL1154586, “Two new acetylenic derivatives and a new meroditerpenoid from a Taiwanese marine sponge Strongylophora durissima” (J Nat Prod, 2000)
Calls of active or inactive are those of the source. No cut-off for these calls is given here.

Tested on: NUGC
Test: Cytotoxicity against human NUGC cells at 10 uM
Type: functional, cell-based

Structure (SMILES)	Activity
C#CC(O)/C=C/CCCCCCCCC/C=C\CCCCCCCCC/C=C/C(O)C#C (configuration not stated)	Active
C#CC(O)/C=C/CCCCCCCCCCCCC#CCCCCCCCCCCC#CC#CCO (configuration not stated)	Active
